Measured values as given in patent US5466716A, “Liposomal trimethylsphingosine” (The Biomembrane Institute, priority 1994, dated 1995).
Entries after “also recorded” stand apart in the source; their conditions may differ. Read-outs that look alike come from different tables or passages of the source.

What was measured:
platelets = assay: platelet aggregation; format: cell-based, human
Experimental: FIGS. 7A and 7B depict the effect of N,N,N-trimethylsphingosine (TMS) on platelet aggregation. A 0.45 ml aliquot of human platelet suspension (3-5×10^5 platelets per μl of Tyrode's buffer) was incubated with sphingosine or TMS for 2 minutes. Then platelet aggregation was induced by the addition of either γ-thrombin (FIG. 7A) or adenosine diphosphate (ADP) (FIG. 7B) in 0.05 ml. The degree of aggregation was determined in an aggregometer and the data analyzed with an integrated computer (Kyoto Daiichi Kagaku Co. Ltd.).
FIG. 8 depicts further the dose response of platelet aggregation by sphingoid. Aggregation of the platelets was induced with 10 nM γ-thrombin.
Platelets were isolated from platelet-rich plasma (purchased from the Oregon Red Cross, Portland, Oreg. Contaminating erythrocytes were removed by centrifugation (80×g for 10 minutes). Platelets were obtained by centrifugation (300×g for 10 minutes), washed once in Tyrodes's buffer (pH 6.5) containing 22 mM trisodium citrate and 0.35% (w/v) BSA and resuspended in the same buffer to obtain a concentration of 1-2×10^9 platelets/ml. All procedures were performed at room temperature.
A suspension of platelets (3.5×10^8 /ml) in Tyrode's buffer was preincubated with various inhibitor compounds (H-7 is [1-(5-isoquinolinylsulfonyl)-2-methylpiperazine, a synthetic protein kinase-C inhibitor purchased from Seikagaku America Inc., St. Petersburg, Fla.], calphostin-C [a synthetic protein kinase-C inhibitor obtained from Dr. Saitoh, Kyowa Hakko Co., Ltd., Machida, Tokyo, Japan], sphingosine [purchased from Sigma, St. Louis, Mo.] and dimethylsphingosine and trimethylsphingosine [synthesized according to Igarashi et al., Biochem., 28, 6796, 1989]) followed by addition of thrombin or ADP (both purchased from Sigma). Platelet aggregation was evaluated by transmittance change using an aggregometer (Chrono-log Corp., Havertown, Pa.) equipped with a computer analyzer.

[1] = neutrophil viability (trypan blue exclusion); format: cell-based, human; conditions: neutrophils
Experimental: (§1) The viability was evaluated by trypan blue exclusion assay. The cell
(§2) incubated at 37° C. for 10 min with effectors. The aliquot was
(§3) mixed with an equal amount of trypan blue solution and immediately counte
(§4) under a Nikon light microscope.

neutrophils [2] = assay: neutrophil viability (trypan blue exclusion); format: cell-based, human; conditions: for cytotoxic damage to neutrophils: 25 μM
Experimental: as §1, §2, §3, §4

protein kinase-C = conditions: cited from earlier work
[3] = system: human lung cancer cell line LU-65; assay: tritiated thymidine incorporation, tumor cell growth (LU-65); format: cell-based; conditions: LU-65, FIG. 2B
From the text: FIGS. 2A-2C show the effect of sphingosine derivatives on human tumor cell growth. In FIG. 2A the growth of human colonic cancer cell line COLO-205 was monitored. In FIG. 2B the growth of human lung cancer cell line LU-65 was monitored. In FIG. 2C the growth of human gastric cancer cell line MKN-74 was monitored. In each Figure the ordinate represents the percent inhibition of tritiated thymidine incorporation, the solid circles represent sphingosine, the open circles represent N,N-dimethylsphingosine and the triangles represent N,N,N-trimethylsphingosine.
An in vitro assay relying on tritiated thymidine incorporation can be used to ascertain the effect of various compounds on cell proliferation. Briefly, tumor cells are seeded in flat bottom 96 well plates (Corning, N.Y.) at a concentration of 2×10^4 cells per well. The cells are cultured for 2 days in DMEM containing various concentrations of sphingoid, which is added as a PBS solution. The medium then is supplemented with tritiated thymidine at a concentration of 0.5 μCi per well. Following a six hour incubation the cells are collected using the PHD Cell Harvester (Cambridge Technology, Cambridge, Mass.) and amounts of incorporated radioactivity are determined after adding a suitable cell lysing agent and scintillation cocktail, such as ScintiVerse BD (Fisher Scientific, Fairlawn, Calif.) which performs both functions. […]

MKN-74 cells = assay: comparative effect of reagents on MKN-74 tumor cell growth/differentiation; format: cell-based, human; conditions: MKN-74, FIG. 3, compared with DMS, SPN, cAMP derivatives, HMBA
From the text: FIG. 3 depicts the comparative effect of various reagents on tumor cell differentiation. MKN-74 cells were exposed to N,N,N-trimethylsphingosine (open squares), N,N-dimethylsphingosine (open circles), 8-chloro-cyclic AMP (open triangles), dibutyryl cyclic AMP (solid triangles), sphingosine (solid circles) and hexamethylenebisacetamide (solid squares).
An in vitro assay relying on tritiated thymidine incorporation can be used to ascertain the effect of various compounds on cell proliferation. Briefly, tumor cells are seeded in flat bottom 96 well plates (Corning, N.Y.) at a concentration of 2×10^4 cells per well. The cells are cultured for 2 days in DMEM containing various concentrations of sphingoid, which is added as a PBS solution. The medium then is supplemented with tritiated thymidine at a concentration of 0.5 μCi per well. Following a six hour incubation the cells are collected using the PHD Cell Harvester (Cambridge Technology, Cambridge, Mass.) and amounts of incorporated radioactivity are determined after adding a suitable cell lysing agent and scintillation cocktail, such as ScintiVerse BD (Fisher Scientific, Fairlawn, Calif.) which performs both functions.
MKN-74 cells were exposed to cAMP and derivatives thereof and to HMBA, which are known to inhibit tumor cell growth by differentiation induction.

neutrophils [4] = assay: neutrophil O2 consumption (Clark-type electrode); format: cell-based, human
Experimental: FIG. 14 depicts the effect of various reagents on neutrophil O2 consumption. The Clark-type electrode and oxygen monitor were calibrated using air-saturated water according to the manufacturer's recommendations (Y.S.I. Inc., Yellow Springs, Ohio. A reading of 100% was considered to be equal to the concentration of oxygen in air-saturated water.
O2 consumption was measured using a Clark-type electrode with a Y.S.I. model P300 biological oxygen monitor and a micro oxygen chamber assembly (Y.S.I. Inc., Yellow Springs, Ohio). Assays were performed at 37° C. with ≈6×10^6 neutrophils per ml in a total volume of 600 μl. The cell suspensions, in Eppendorf test tubes, were warmed at 37° C. for several minutes before being applied to the microchamber. Effectors were injected carefully using a Hamilton syringe and stirred well with a microstirrer at a speed of ≈240 rpm. The cell suspensions were pre-incubated with effectors for 5 min prior to addition of PMA to a final concentration of 1.0 μM.

[5] = Table III, control 94, read-out: Viability

Compound | cytotoxicity at 10 min, 15 µM [1] [%] | viability at 10 min, 5 µM ([1]; Table V, 37° C., 10 min) [%] | viability at 10 min, 25 µM ([1]; Table V, 37° C., 10 min) [%] | viability at 10 min, 45 µM ([1]; Table V, 37° C., 10 min) [%] | cytotoxic damage to neutrophils (neutrophils [2]) | viability at 10 min, 15 µM [1, 5] [%] | further results
CCCCCCCCCCCCC/C=C/[C@@H](O)[C@H](CO)N(C)C [DMS, (4E)-N,N-dimethyl-D-erythro-sphingosine] | 12 to 13 | 96 ± 3 | 29 ± 5 | 0 | major cytotoxic damage to neutrophils |  | inhibition of thrombin- or ADP-induced platelet aggregation (platelets; thrombin or ADP, compared with TMS): did not inhibit thrombin- or ADP-induced platelet aggregation as well as did TMS; viability at 10 min, 15 µM ([1]; Table V, 37° C., 10 min, read-out: Viability of neutrophils): 88 ± 8%
CCCCCCCCCCCCC/C=C/[C@@H](O)[C@@H](N)CO [SPN, sphingosine] | 12 to 13 | 95 ± 3 | 53 ± 18 | 5 ± 5 | major cytotoxic damage to neutrophils | 87 ± 5.3 | PK-C inhibition (protein kinase-C; below 100 μM, Igarashi et al.): did not inhibit PK-C
CCCCCCCCCCCCC/C=C/[C@@H](O)[C@H](CO)[N+](C)(C)C [TMS, N,N,N-trimethylsphingosine] |  | 98 ± 2 | 83 ± 6 | 63 ± 8 | negligible | 97 ± 2.9 | inhibition of tumor cell growth [3]: superior to sphingosine; also recorded: showed an advantage over DMS; inhibition of tumor cell growth (MKN-74 cells): most effective inhibitor of tumor cell growth; inhibition of ATP secretion associated with platelet aggregation (platelets): inhibited strongly; inhibition of platelet aggregation (platelets): inhibited strongly; also recorded: inhibited platelet aggregation in a dose-responsive fashion; ristocetin-induced platelet aggregation following incubation (platelets; exclusion of cytotoxicity on platelets): normal ristocetin-induced aggregation; neutrophil O2 consumption (neutrophils [4]; Example 6): noted effect; inhibition of PMA-dependent enhancement of O2 consumption (neutrophils [4]; PMA, FIG. 14): inhibited strongly; cell cytotoxicity (neutrophils [2]; 15 μM): no significant cell cytotoxicity; cell viability during transmigration (neutrophils [2]; 15 μM): without affecting the viability of the cells; cell viability (neutrophils [2]; Examples 9 and 10): without an adverse effect on cell viability; also recorded: without effecting cell viability
Calphostin C |  |  |  |  |  |  | concentration reported to inhibit protein kinase-C (protein kinase-C; in vitro, Tamaoki & Nakano): 0.05 µM; Viability (neutrophils [2]; Table III, 5 μM, control 94, 10 min): 46 ± 5.5
